Source: patent EP2923697B1, “Extract and novel isolated compound from Aspergillus terreus for treatment of mouth microbial infections” (King Saud University, priority 2014, dated 2015)
In brackets after ≈: the same amount, converted by molar mass. Several values for one entry are separate records, joined by “and”; a condition that tells them apart may be missing. Equal entries are not always repeated.

What was measured:
Candida tropicalis [1] = assay: Antimicrobial activity, well diffusion method; assay type: cell-based; details: 5mg/ml of sample around well (6 mm), mean ± Standard deviation
Description: (§1) Mouth microbial representatives including unicellular fungi; Candida albicans (RCMB 05382), Candida glabrata (RCMBA 05386), Candida parapsilosis (RCMBA 06002), Candida tropicalis (RCMB 05384), Gram-positive bacteria; Lactobacillus acidophilus (RCMBA 4267), Streptococcus gordonii (RCMBA 2004), Streptococcus mutans (RCMBA 4131), and Gram-negative bacteria; Pseudomonas aeruginosa (RCMBA 1002) were obtained from the Regional Center for Mycology and Biotechnology (RCMB), Al-Azhar University, Cairo, Egypt, as test organisms. Antimicrobial activity was determined by the well diffusion method. Petri plates contained 20 ml of Nutrient (for bacteria) or Malt extract (for fungi). Agar medium were seeded with 1-3 day cultures of microbial inoculums (1-2 X 10^7 CFU/ml). […] The assessment of antimicrobial activity was based on measurement of the diameter of the inhibition zone formed around the well.

Candida albicans [2] = assay: Antimicrobial activity, well diffusion method; assay type: cell-based; details: 5mg/ml of sample around well (6 mm), mean ± Standard deviation
Description: as §1

Candida glabrata [3] = assay: Antimicrobial activity, well diffusion method; assay type: cell-based; details: 5mg/ml of sample around well (6 mm), mean ± Standard deviation
Description: as §1

Candida parapsilosis [4] = assay: Antimicrobial activity, well diffusion method; assay type: cell-based; details: 5mg/ml of sample around well (6 mm), mean ± Standard deviation
Description: as §1

Candida tropicalis [5] = assay: MIC determination, micro-dilution method; assay type: cell-based; details: for MIC: read-out: Minimum Inhibitory Concentration
Description: (§2) Mouth microbial representatives including unicellular fungi; Candida albicans (RCMB 05382), Candida glabrata (RCMBA 05386), Candida parapsilosis (RCMBA 06002), Candida tropicalis (RCMB 05384), Gram-positive bacteria; Lactobacillus acidophilus (RCMBA 4267), Streptococcus gordonii (RCMBA 2004), Streptococcus mutans (RCMBA 4131), and Gram-negative bacteria; Pseudomonas aeruginosa (RCMBA 1002) were obtained from the Regional Center for Mycology and Biotechnology (RCMB), Al-Azhar University, Cairo, Egypt, as test organisms.
(§3) The minimum inhibitory concentration (MIC) was determined by micro-dilution method using serially diluted (2 folds) extract and isolated compound. MIC of the extract was determined by dilution of extract and isolated compound of concentrations of 0.0-1000 µg/ml. Equal volume of each extract and nutrient broth were mixed in a test tube. Specifically 0.1 ml of standardized inoculum (1-2 X 10^7 CFU/ml) was added in each tube. The tubes were incubated at 37°C for 24-48 h. Two control tubes containing the growth medium, saline and the inoculum were maintained for each test batch. The lowest concentration (highest dilution) of the extract that produced no visible microbial growth (no turbidity) when compared with the control tubes were regarded as MIC.

Candida glabrata [6] = assay: MIC determination, micro-dilution method; assay type: cell-based
Description: as §2, §3

Candida parapsilosis [7] = assay: MIC determination, micro-dilution method; assay type: cell-based; details: Lodderomyces parapsilosis, read-out: Minimum Inhibitory Concentration
Description: as §2, §3

Candida albicans [8] = assay: In-vitro activity in combination with Coe-Comfort tissue conditioner, CFU count; assay type: cell-based; details: for concentration giving total growth inhibition: C. albicans, in combination with Coe-comfort tissue conditioner; for No. colony-forming units (CPU): Candida albicans, mixed with Coe-Comfort
Method: The Coe-Comfort tissue conditioner was mixed according to the proportions indicated by the manufacturers. In detail, Coe-comfort™ tissue conditioner is formed by dispensing 5 ml of Coe-comfort liquid into a disposable mixing cup. The red measure level is filled with about 6 g of Coe-comfort powder and is then slowly added to the liquid. The obtained mixture is blended for 30 seconds and setted aside for approximately one minute until it flows sluggishly from a spatula. Using less liquid gives a thicker, faster setting mix and vice versa. […] The extract and isolated compound/conditioner mixture was homogenized in a sterile glass beaker for 30 seconds. Immediately afterwards, the conditioning powder was added and mixed for 40 seconds and then poured onto a Petri plate. Once the mixture solidified, the surface was covered with 4 ml of Sabouraud agar, and after 30 minutes, inoculated with 20 µl of an appropriate dilution of Candida. The plates were incubated at 37°C for 24 hours and then the CFUs were counted. The experiment was performed in triplicate. For the conditioner Coe-Comfort, the control was unmodified conditioner.

Pseudomonas aeruginosa [9] = assay: Antimicrobial activity, well diffusion method; assay type: cell-based; details: 5mg/ml of sample around well (6 mm), mean ± Standard deviation
Description: as §1

Streptococcus gordonii [10] = assay: Antimicrobial activity, well diffusion method; assay type: cell-based; details: 5mg/ml of sample around well (6 mm), mean ± Standard deviation
Description: as §1

Streptococcus mutans [11] = assay: Antimicrobial activity, well diffusion method; assay type: cell-based; details: 5mg/ml of sample around well (6 mm), mean ± Standard deviation
Description: as §1

[12] = system: Lactobacillus acidophilus; assay: Antimicrobial activity, well diffusion method; assay type: cell-based; details: 5mg/ml of sample around well (6 mm), mean ± Standard deviation
Description: as §1

S. mutans = assay: In-vitro activity in combination with Coe-Comfort tissue conditioner; assay type: cell-based, Streptococcus mutans
Candida albicans [13] = assay: MIC determination, micro-dilution method; assay type: cell-based; details: read-out: Minimum Inhibitory Concentration
Description: as §2, §3

Pseudomonas aeruginosa [14] = assay: MIC determination, micro-dilution method; assay type: cell-based; details: read-out: Minimum Inhibitory Concentration
Description: as §2, §3

Streptococcus gordonii [15] = assay: MIC determination, micro-dilution method; assay type: cell-based; details: read-out: Minimum Inhibitory Concentration
Description: as §2, §3

Streptococcus mutans [16] = assay: MIC determination, micro-dilution method; assay type: cell-based; details: read-out: Minimum Inhibitory Concentration
Description: as §2, §3

[17] = system: Lactobacillus acidophilus; assay: MIC determination, micro-dilution method; assay type: cell-based
Description: as §2, §3

[18] = system: Lactobacillus acidophilus; assay: In-vitro activity in combination with Coe-Comfort tissue conditioner, CFU count; assay type: cell-based; details: for No. colony-forming units (CFU): mixed with Coe-Comfort
[19] = Sub-chronic toxicity, liver and kidney function; assay type: in vivo, Male Wister rats; details: rats; oral daily for 15 days; extract 500 mg/kg, isolated compound 50 mg/kg; serum 6 hr after the last dose
Method: Male Wister rats (150-180 g) were divided into 3 equal groups each of 10 rats. Rats of the 1st group received the vehicle in a dose of 5 mL/kg and left as normal control. Rats of the 2nd and 3rd groups were administered the ethanolic extract of the investigated fungi (500 mg/kg) and the isolated compound (50 mg/kg). All medications were administered orally daily for 15 consecutive days. Animals were maintained under identical conditions with food and water ad libitum for the entire period with close observation. At the end of the experimental period, blood samples were collected from the orbital plexus of rats, 6 hr after the last dose. Samples were left to clot at room temperature for 20 min. The obtained sera were collected and used to determine the activity of AST and ALT. Levels of urea and creatinine were also estimated.

Streptococcus gordonii [20] = assay: In-vitro activity in combination with Coe-Comfort tissue conditioner; assay type: cell-based

C[C@@H]1[C@H](O)[C@@H](C)/C=C/C=C/C=C/C=C/C=C/C=C/C=C/[C@H](O[C@@H]2O[C@H](C)[C@@H](O)[C@H](N)[C@@H]2O)C[C@@H]2O[C@](O)(C[C@@H](O)C[C@@H](O)[C@H](O)CC[C@@H](O)C[C@@H](O)CC(=O)O[C@H]1C)C[C@H](O)[C@H]2C(=O)O [Amphotericin B, reference compound]
Diameter of inhibition zone (Candida tropicalis [1]): 24.6± 0.27 mm
Diameter of inhibition zone (Candida albicans [2]): 21.3± 0.14 mm
Diameter of inhibition zone (Candida glabrata [3]): 20.4± 0.87 mm
Diameter of inhibition zone (Candida parapsilosis [4]): 23.2 ± 0.53 mm
MIC (Candida tropicalis [5]): 0.12 µg/mL (≈ 0.13 µM)
MIC (Candida glabrata [6]; Nakaseomyces glabratus, read-out: Minimum Inhibitory Concentration): 1.95 µg/mL (≈ 2.11 µM)
MIC (Candida parapsilosis [7]): 0.49 µg/mL (≈ 0.53 µM)
concentration giving total growth inhibition (Candida albicans [8]): 7.81 µg/mL
No. colony-forming units (CPU) (Candida albicans [8]; concentration 000.49 µg/ml): 9.1 x 10^4
No. colony-forming units (CPU) (Candida albicans [8]; concentration 000.98 µg/ml): 8.9 x 10^4
No. colony-forming units (CPU) (Candida albicans [8]; concentration 001.95 µg/ml): 9.3 x 10^3
No. colony-forming units (CPU) (Candida albicans [8]; concentration 003.90 µg/ml): 8.1 x 10^2
No. colony-forming units (CPU) (Candida albicans [8]; concentration 007.81 µg/ml): 00.00
No. colony-forming units (CPU) (Candida albicans [8]; concentration 015.63 µg/ml): 00.00
No. colony-forming units (CPU) (Candida albicans [8]; concentration 031.25 µg/ml): 00.00
No. colony-forming units (CPU) (Candida albicans [8]; concentration 062.50 µg/ml): 00.00

C/C=C(/C)C1CCC2C(C1)CC(C)C1C2C=C(C)C2C3CC(C=C(C)C)CC3C(O)CC21 (stereo not drawn) [Isolated compound, 9-((Z)-but-2-en-2-yl)-2,3,3a,4,5,5a;5b,6,7,7a,8,9,10,11,11a,11b,13a,13b-octadecahydro-6,13-dimethyl-2-(2-methylprop-1-enyl)-1H-cyclopenta[a]chrysen-4-ol]
Diameter of inhibition zone (Candida tropicalis [1]): 22.4 ± 0.58 mm
Diameter of inhibition zone (Candida albicans [2]): 19.3 ± 0.63 mm
Diameter of inhibition zone (Candida glabrata [3]): 00.0 mm
Diameter of inhibition zone (Pseudomonas aeruginosa [9]): 18.2± 0.63 mm
Diameter of inhibition zone (Streptococcus gordonii [10]): 20.3 ± 0.72 mm
Diameter of inhibition zone (Streptococcus mutans [11]): 22.1± 0.72 mm
Diameter of inhibition zone [12]: 23.9 ± 0.37 mm
Diameter of inhibition zone (Candida parapsilosis [4]): 21.3 ± 0.58 mm
concentration giving total growth inhibition (S. mutans): 125 µg/mL
Minimum Inhibitory Concentration (Candida tropicalis [5]): 000.49 µg/mL
MIC (Candida tropicalis [5]): 0.49 µg/mL (≈ 1.12 µM)
MIC (Candida albicans [13]): 7.81 µg/mL (≈ 17.9 µM)
Minimum Inhibitory Concentration (Candida glabrata [6]; Candida glabrata): 000.00 µg/mL
MIC (Pseudomonas aeruginosa [14]): 15.6 µg/mL (≈ 35.8 µM)
MIC (Streptococcus gordonii [15]): 3.9 µg/mL (≈ 8.93 µM)
MIC (Streptococcus mutans [16]): 0.98 µg/mL (≈ 2.24 µM)
Minimum Inhibitory Concentration [17]: 000.24 µg/mL
MIC ([17]; read-out: Minimum Inhibitory Concentration): 0.24 µg/mL (≈ 0.55 µM)
MIC (Candida parapsilosis [7]): 1.95 µg/mL (≈ 4.47 µM)
concentration giving total growth inhibition ([18]; in combination with Coe-comfort tissue conditioner): 7.81 µg/mL
No. colony-forming units (CFU) ([18]; concentration 000.24 µg/ml): 8.2 x 10^5
No. colony-forming units (CFU) ([18]; concentration 000.49 µg/ml): 9.7 x 10^4
No. colony-forming units (CFU) ([18]; concentration 000.98 µg/ml): 4.8 x 10^4
No. colony-forming units (CFU) ([18]; concentration 001.95 µg/ml): 3.4 x 10^3
No. colony-forming units (CFU) ([18]; concentration 003.90 µg/ml): 4.1 x10^2
No. colony-forming units (CFU) ([18]; concentration 007.81 µg/ml): 00.00
No. colony-forming units (CFU) ([18]; concentration 015.63 µg/ml): 00.00
No. colony-forming units (CFU) ([18]; concentration 031.25 µg/ml): 00.00
No. colony-forming units (CFU) ([18]; concentration 062.50 µg/ml): 00.00
concentration giving total growth inhibition (Candida albicans [8]): 7.81 µg/mL
No. colony-forming units (CPU) (Candida albicans [8]; concentration 000.24 µg/ml): 9.1 x 10^4
No. colony-forming units (CPU) (Candida albicans [8]; concentration 000.49 µg/ml): 5.2 x 10^4
No. colony-forming units (CPU) (Candida albicans [8]; concentration 000.98 µg/ml): 6.3 x 10^3
No. colony-forming units (CPU) (Candida albicans [8]; concentration 001.95 µg/ml): 1.0 x 10^3
No. colony-forming units (CPU) (Candida albicans [8]; concentration 003.90 µg/ml): 2.3 x 10^2
No. colony-forming units (CPU) (Candida albicans [8]; concentration 007.81 µg/ml): 00.00
No. colony-forming units (CPU) (Candida albicans [8]; concentration 015.63 µg/ml): 00.00
No. colony-forming units (CPU) (Candida albicans [8]; concentration 031.25 µg/ml): 00.00
No. colony-forming units (CPU) (Candida albicans [8]; concentration 062.50 µg/ml): 00.00
effect on the activity of alanine aminotransferase (ALT) [19]: did not show any significant effect
effect on the activity of aspirate aminotransferase (AST) [19]: did not show any significant effect
effect on the levels of blood urea [19]: did not show any significant effect
effect on the levels of serum creatinine [19]: did not show any significant effect
concentration giving total growth inhibition (Streptococcus gordonii [20]): 62.50 µg/mL and 62.5 µg/mL
